Measured values as given in patent US12319663B2, “Alkene-containing amide compound and application thereof” (SHENYANG SINOCHEM AGROCHEMICALS R&D CO., LTD., priority 2019, dated 2025).

Legend:
Assay type in all cases: in vivo
piemarker = test: Herbicidal activity, post-emergence stem and leaf spray, greenhouse: piemarker control
Description: (§1) Seeds of broadleaf weeds (zinnia and piemarker) or grassy weeds (green bristlegrass and barnyard grass) are respectively sown in a paper cup having a diameter of 7 cm and containing nutrient soil; after sowing, the seeds are covered with 1 cm of soil; the soil is pressed and watered, and then the seeds are cultivated in a greenhouse according to a conventional method; and stems and leaves are sprayed after 2-3 leaf stage of the weeds.
(§2) After the original medicinal acetone was dissolved, the test requires to use 1% of Tween 80 to stand in running water to prepare the solution to be tested with a required concentration. According to the design dose of the test, spray treatment was carried out on a track-type crop sprayer (designed and produced by British Engineer Research Ltd.) (spray pressure is 1.95 kg/cm^2, spray volume is 50 L/hm^2 and track speed is 1.48 km/h). The test was repeated for three times. The test material was treated and then placed in an operation hall. The medicinal liquid was naturally dried in the shade, and then was placed in a greenhouse and managed according to the conventional method, The response of the weeds to the drug was observed and recorded, After treatment, the control effects of the test drug on the weeds were visually inspected regularly, expressed by 0-100%. “0” represents no control effect and “100%” represents complete killing.
According to the above test method, part of the compounds of the formula I and KC are selected for activity test of controlling the piemarker. […]

green bristlegrass = test: Herbicidal activity, post-emergence stem and leaf spray, greenhouse: green bristlegrass control
Description: as §1, §2
According to the above test method, part of the compounds of the formula I and KC are selected for the activity test of controlling the green bristlegrass.

barnyard grass = test: Herbicidal activity, post-emergence stem and leaf spray, greenhouse: barnyard grass control
Description: as §1, §2
According to the above test method, part of the compounds of the formula I and KC are selected for the activity test of controlling the barnyard grass.

zinnia = test: Herbicidal activity, post-emergence stem and leaf spray, greenhouse: zinnia control; conditions: visual, 0 = no control effect, 100% = complete killing
Description: as §1, §2
According to the above test method, part of the compounds of the formula I and KC are selected for activity test of controlling the zinnia.

[1] = dose 37.5 g a.i./hm2, post-emergence stem and leaf spray
[2] = dose 150 g a.i./hm2, post-emergence stem and leaf spray
[3] = dose 600 g a.i./hm2, post-emergence stem and leaf spray

## Cn1nnnc1N(C(=O)C1=CCCCC1)C(=O)c1ccc(C(F)(F)F)cc1S(C)(=O)=O [Compound 2-265]
piemarker; [1]
  Piemarker control activity (after emergence, control effect %): 90%
piemarker; [2]
  Piemarker control activity (after emergence, control effect %): 95%
piemarker; [3]
  Piemarker control activity (after emergence, control effect %): 95%
Green bristlegrass; [1]
  Green bristlegrass control activity (after emergence, control effect %): 80%
Green bristlegrass; [2]
  Green bristlegrass control activity (after emergence, control effect %): 90%
Green bristlegrass; [3]
  Green bristlegrass control activity (after emergence, control effect %): 95%
Barnyard grass; [1]
  Barnyard grass control activity (after emergence, control effect %): 95%
Barnyard grass; [2]
  Barnyard grass control activity (after emergence, control effect %): 95%
Barnyard grass; [3]
  Barnyard grass control activity (after emergence, control effect %): 95%
zinnia; dose 37.5 g a.i./hm^2
  Zinnia control activity (after emergence, control effect %): 95%
zinnia; dose 150 g a.i./hm^2
  Zinnia control activity (after emergence, control effect %): 100%
zinnia; dose 600 g a.i./hm^2
  Zinnia control activity (after emergence, control effect %): 100%
